Reference: patent EP1200395B1, “UREA DERIVATIVES AS INHIBITORS OF CCR-3 RECEPTOR” (KIRIN BEER KABUSHIKI KAISHA, priority 1999, dated 2001)
Counter-ions that a name gives are not always drawn.

Target: T1, CCR-3 (Homo sapiens, UniProt P51677)
T1 sequence (P51677 1-355): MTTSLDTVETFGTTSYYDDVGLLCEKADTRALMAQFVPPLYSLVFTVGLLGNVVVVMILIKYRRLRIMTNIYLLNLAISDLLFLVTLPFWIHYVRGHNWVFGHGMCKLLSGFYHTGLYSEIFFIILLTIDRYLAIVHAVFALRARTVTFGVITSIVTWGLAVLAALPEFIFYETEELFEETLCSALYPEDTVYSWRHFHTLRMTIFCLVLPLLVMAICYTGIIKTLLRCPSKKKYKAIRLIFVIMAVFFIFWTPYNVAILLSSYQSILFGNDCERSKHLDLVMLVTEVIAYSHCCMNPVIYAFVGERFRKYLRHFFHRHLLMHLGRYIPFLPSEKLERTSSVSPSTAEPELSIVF
Assay: Eotaxin-induced chemotaxis of CCR-3 transfectant cells (CCR3/U937)
Assay type: cell-based
Set-up: expressed in transfected cells; host or cells: U937
Conditions: 10 µM test compound; eotaxin 1 x 10^-9 M; CCR3/U937 cells (Table 3a)

| SMILES | Chemotaxis Assay 10 µM (inhibition %) |
| --- | --- |
| COc1cc(CN(CCCNC(=O)Nc2ccccc2)CCc2ccc(Cl)cc2)cc(OC)c1 [Compound 292] | 56% |

Same assay, conditions: 10 µM test compound; eotaxin 1 x 10^-9 M; CCR3/U937 cells (Table 3c)

| SMILES | Chemotaxis Assay 10 µM (inhibition %) |
| --- | --- |
| CCCC[N+](CC)(CCCNC(=O)Nc1ccc(Br)cc1)CCc1ccc(Cl)cc1.[I-] (centres unmarked) [Compound 294] | 100% |
| CCC[N+](CC)(CCCNC(=O)Nc1ccc(Br)cc1)CCc1ccc(Cl)cc1.[I-] (centres unmarked) [Compound 295] | 100% |
| CC[N+](CCCNC(=O)Nc1ccccc1)(CCc1ccc(Cl)cc1)Cc1ccc(C)cc1.[I-] (centres unmarked) [Compound 297] | 100% |
| CC[N+](CCCO)(CCCNC(=O)Nc1ccccc1)CCc1ccc(Cl)cc1.[I-] (centres unmarked) [Compound 299] | 100% |
| CC[N+](CCCNC(=O)Nc1ccccc1)(CCc1ccc(Cl)cc1)CC(N)=O.[I-] (centres unmarked) [Compound 300] | 100% |
| C=CC[N+](CC)(CCCNC(=O)Nc1ccccc1)CCc1ccc(Cl)cc1.[I-] (centres unmarked) [Compound 301] | 100% |
| CC[N+](CCCNC(=O)Nc1ccccc1)(CCc1ccc(Cl)cc1)Cc1ccc(C(=O)OC)cc1.[I-] (centres unmarked) [Compound 303] | 100% |
| CC[N+](CC)(CCCNC(=O)Nc1ccccc1)CCc1ccc(OC)cc1.[I-] [Compound 304] | 66% |
| CC[N+](CC)(CCCNC(=O)Nc1ccccc1)Cc1ccccc1.[I-] [Compound 305] | 100% |
| CC[N+](CC)(CCCNC(=O)Nc1ccccc1)CCc1ccc(F)cc1.[I-] [Compound 306] | 100% |
| CC[N+](CC)(CCCNC(=O)Nc1ccccc1)CCc1ccc(C)cc1.[I-] [Compound 307] | 92% |
| CC[N+](CC)(CCCNC(=O)Nc1ccccc1)CCc1ccccc1Cl.[I-] [Compound 308] | 100% |
| CC[N+](CC)(CCCCCNC(=O)Nc1ccccc1)CCc1ccc(Cl)cc1.[I-] [Compound 323, [5-(Phenylureido)pentyl][2-(4-chlorophenyl)ethyl]diethylammanium iodide] | 100% |
| CC[N+](CC)(CCCNC(=O)Nc1ccccc1)C1CCc2ccccc21.[I-] (centres unmarked) [compound 311] | 93% |
| CC[N+](CCCNC(=O)Nc1ccc(Br)cc1)(CCCC(=O)OC)C(C)c1ccccc1.[I-] (centres unmarked) [compound 312] | 97% |
| CC[N+](CCCNC(=O)Nc1ccc(Br)cc1)(CCCC(=O)OC)C(C)c1ccccc1.[I-] (centres unmarked) [compound 313] | 86% |
| CC[N+](CCCNC(=O)Nc1ccc(Br)cc1)(CCCC(=O)OC)C1CCc2ccccc21.[I-] (centres unmarked) [compound 314] | 100% |
| CC[N+](CCCNC(=O)Nc1ccccc1)(CCc1ccc(Cl)cc1)CCc1ccc(Cl)cc1.[I-] [compound 317] | 100% |
| CC[N+](CCCNC(=O)Nc1ccccc1)(CCc1ccc(Cl)cc1)CC(C)C.[I-] (centres unmarked) [compound 318] | 100% |
| CC[N+](CCCNC(=O)Nc1ccccc1)(CCc1ccc(Cl)cc1)CC1CCCCC1.[I-] (centres unmarked) [compound 319] | 100% |
| CCOC(=O)CCCCC[N+](CC)(CCCNC(=O)Nc1ccccc1)CCc1ccc(Cl)cc1.[I-] (centres unmarked) [compound 321] | 100% |

| SMILES | Chemotaxis Assay 10 µM (inhibition %) |
| --- | --- |
| CC[N+](CCCNC(=O)Nc1ccc(OC)cc1)(CCc1ccc(Cl)cc1)Cc1ccccc1.[I-] (centres unmarked) [compound 324] | 100% |
| CC[N+](CCCNC(=O)Nc1ccc(Cl)c(Cl)c1)(CCc1ccc(Cl)cc1)Cc1ccccc1.[I-] (centres unmarked) [compound 325] | 100% |
| CC[N+](CCCNC(=O)Nc1ccc(C#N)cc1)(CCc1ccc(Cl)cc1)Cc1ccccc1.[I-] (centres unmarked) [compound 326] | 100% |
| CC[N+](CCCNC(=O)Nc1ccccc1)(CCc1ccc(Cl)cc1Cl)Cc1ccccc1.[I-] (centres unmarked) [compound 327] | 100% |
| CC[N+](CCCNC(=O)Nc1ccccc1)(CCc1cccc(Cl)c1)Cc1ccccc1.[I-] (centres unmarked) [compound 328] | 100% |
| CC[N+](CCCNC(=O)Nc1ccccc1)(CCc1ccc(Cl)cc1)Cc1cccc(Cl)c1.[I-] (centres unmarked) [compound 329] | 100% |
| CC[N+](CCCNC(=O)Nc1ccccc1)(CCc1ccc(Cl)cc1)Cc1ccc(-c2ccccc2)cc1.[I-] (centres unmarked) [compound 330] | 100% |
| CC[N+](CCCNC(=O)Nc1ccccc1)(CCc1ccc(Cl)cc1)Cc1cccc(OC)c1.[I-] (centres unmarked) [compound 331] | 100% |
| CC[N+](CCCNC(=O)Nc1ccccc1)(CCc1ccc(Cl)cc1)Cc1cccc(C(=O)OC)c1.[I-] (centres unmarked) [compound 332] | 100% |
| CC[N+](CCCNC(=O)Nc1ccccc1)(CCc1ccc(Cl)cc1)Cc1cccc(Oc2ccccc2)c1.[I-] (centres unmarked) [compound 333] | 100% |
| CC[N+](CCCNC(=O)Nc1ccccc1)(CCc1ccc(Cl)cc1)Cc1ccc(OCc2ccccc2)cc1.[I-] (centres unmarked) [compound 334] | 100% |
| CC[N+](CCCNC(=O)Nc1ccccc1)(CCc1ccc(Cl)cc1)Cc1ccc([N+](=O)[O-])cc1.[I-] (centres unmarked) [compound 337] | 99% |
| CC[N+](CCCNC(=O)Nc1ccccc1)(CCc1ccc(Cl)cc1)Cc1cccc([N+](=O)[O-])c1.[I-] (centres unmarked) [compound 338] | 100% |
| CC[N+](CCCNC(=O)Nc1ccccc1)(CCc1ccc(Cl)cc1)Cc1ccc(F)cc1F.[I-] (centres unmarked) [compound 339] | 100% |
| CC[N+](CCCNC(=O)Nc1ccccc1)(CCc1ccc(Cl)cc1)Cc1ccc(Br)cc1.[I-] (centres unmarked) [compound 340] | 100% |
| CC[N+](CCCNC(=O)Nc1ccccc1)(CCc1ccc(Cl)cc1)Cc1ccccc1-c1ccccc1.[I-] (centres unmarked) [compound 341] | 100% |
| CC[N+](CCCNC(=O)Nc1ccccc1)(CCc1ccc(Cl)cc1)Cc1ccc(C(C)(C)C)cc1.[I-] (centres unmarked) [compound 342] | 97% |
| CC[N+](CCCNC(=O)Nc1ccccc1)(CCc1ccc(Cl)cc1)Cc1ccc(OC)cc1.[I-] (centres unmarked) [compound 344] | 100% |
| CC[N+](CCCNC(=O)Nc1ccccc1)(CCc1ccc(Cl)cc1)Cc1ccc(C#N)cc1.[I-] (centres unmarked) [compound 345] | 100% |
| CC[N+](CCCNC(=O)Nc1ccccc1)(CCc1ccc(Cl)cc1)Cc1ccccc1C.[I-] (centres unmarked) [compound 346] | 100% |

Same assay, conditions: U-937; 10 µM test compound; eotaxin 1 x 10^-9 M; CCR3/U937 cells (Table 3a)

| SMILES | inhibition at 10 µM |
| --- | --- |
| C[C@@H](c1ccc(Br)cc1)N(CCCNC(=O)Nc1ccc(Br)cc1)CCCC(=O)O [Compound 293, 4-[[3-(4-Bromophenylureido)propyl][(1S)-1-(4-bromophenyl)ethyl]amino]butanoic acid] | 95% |

Same assay, conditions: U-937; 10 µM test compound; eotaxin 1 x 10^-9 M; CCR3/U937 cells (Table 3c)

| SMILES | inhibition at 10 µM |
| --- | --- |
| Cc1ccc(C[N+](CCCNC(=O)Nc2ccccc2)(CCc2ccc(Cl)cc2)Cc2ccc(C)cc2)cc1 [Compound 296, [3-(Phenylureido)propyl][2-(4-chlorophenyl)ethyl]bis(4-methylbenzyl)ammonium iodide] | 67% |
| CC[N+](CCCNC(=O)Nc1ccccc1)(CCc1ccc(Cl)cc1)Cc1ccccc1 (centres unmarked) [Compound 302, [3-(Phenylureido)propyl][2-(4-chlorophenyl)ethyl](benzyl)ethylammonium iodide] | 100% |
| CC[N+](CC)(CCCNC(=O)Nc1ccccc1)CCc1cccc(Cl)c1 [Compound 309, [3-(Phenylureido)propyl][2-(3-chlorophenyl)ethyl]diethylammonium iodide] | 100% |
| CC[N+](CCCNC(=O)Nc1ccc(Br)cc1)(CCCC(=O)O)[C@@H](C)c1ccccc1 (stereo partly drawn) [Compound 315, [3-(4-Bromophenylureido)propyl][(1S)-1-phenylethyl][3-(carboxy)propyl]ethylammonium trifluoroacetate] | 63% |
| CC[N+](CCCNC(=O)Nc1ccc(Br)cc1)(CCCC(=O)O)[C@H](C)c1ccccc1 (stereo partly drawn) [Compound 316, [3-(4-Bromophenylureido)propyl][(1R)-1-phenylethyl][3-(carboxy)propyl]ethylammonium trifluoroacetate] | 82% |
| CC[N+](CCCCC(=O)OC)(CCCNC(=O)Nc1ccccc1)CCc1ccc(Cl)cc1 (centres unmarked) [Compound 320, [3-(Phenylureido)propyl][2-(4-chlorophenyl)ethyl][4-(methoxycarbonyl)butyl] ethylammonium iodide] | 100% |
| CC[N+](CCCNC(=O)Nc1ccccc1)(CCc1ccc(Cl)cc1)Cc1ccc(C(=O)O)cc1 (centres unmarked) [Compound 322, [3-(Phenylureido)propyl][2-(4-chlorophenyl)ethyl][4-(carboxy)benzyl]ethylammonium iodide] | 93% |
| CC[N+](CCCNC(=O)Nc1ccccc1)(CCc1ccc(Cl)cc1)Cc1ccccc1Cl (centres unmarked) [Compound 343, [3-(Phenylureido)propyl][2-(4-chlorophenyl)ethyl](2-chlorobenzyl)ethylammonium iodide] | 100% |
| CC[N+](CCCNC(=O)Nc1ccccc1)(CCc1ccc(Cl)cc1)Cc1cc(F)ccc1F (centres unmarked) [Compound 351, [3-(Phenylureido)propyl][2-(4-chlorophenyl)ethyl](2,5-difluorobenzyl)ethylammonium iodide] | 100% |
| CC[N+](CCCNC(=O)Nc1ccccc1)(CCc1ccc(Cl)cc1)Cc1cccc(F)c1 (centres unmarked) [Compound 352, [3-(Phenylureido)propyl][2-(4-chlorophenyl)ethyl](3-fluorobenzyl)ethylammonium iodide] | 100% |
